Results reported in publication PMC7463651, “Phase I/Ib Study of Tenalisib (RP6530), a Dual PI3K δ/γ Inhibitor in Patients with Relapsed/Refractory T-Cell Lymphoma” (Cancers, 2020).
Entries after “also recorded” stand apart in the source; their conditions may differ.

Test system: patients with relapsed/refractory T Cell Lymphoma
Assay: Safety assessment (adverse events per CTCAE v4.03, DLT/MTD) in phase I/Ib study
Type: in vivo, human
Protocol: Protocol defined hematological or non-hematological toxicity was considered dose-limiting if it occurred during the first cycle (within the first 28 d) and was considered related to Tenalisib. Hematological DLTs was defined as Grade 4 anemia; Grade 4 neutropenia for >7 days, or Grade ≥3 febrile neutropenia with fever >38.5 °C [101 °F]; Grade 4 thrombocytopenia for >7 days, or Grade ≥3 thrombocytopenia associated with Grade >2 bleeding.
Safety assessment included adverse event (AE) and serious adverse events (SAE) as per Common Terminology Criteria for Adverse Events (CTCAE), Version 4.03. During dose escalation, safety assessments were performed at weekly intervals during Cycle 1 and Cycle 2 and at two weekly intervals during Cycle 3 and 4. After completion of Cycle 4, safety assessments were performed on Day 1 of each subsequent cycle. In dose expansion phase, all safety assessments were performed on Day 1 of each cycle.

[1] = Relationship-Related, Dose Escalation (N = 19)
[2] = Relationship-Related, Dose Expansion (N = 39)
[3] = Relationship-Related, Total (N = 58)
[4] = Relationship-all, Dose Escalation (N = 19)
[5] = Relationship-all, Dose Expansion (N = 39)

CC[C@H](Nc1ncnc2[nH]cnc12)c1oc2ccccc2c(=O)c1-c1cccc(F)c1 [Tenalisib]
Maximum tolerated dose (MTD) (BID, fasting): 800 mg | Number of related AEs (CTCL patients): 208 | Number of related ≥Grade 3 AEs (CTCL patients): 25 | Patients with related AEs (CTCL patients): 27 (90%) n (%) | Patients with related ≥Grade 3 AEs (CTCL patients): 12 (40%) n (%) | Dose-limiting toxicities (DLT) (Cohort 4, 800 mg BID (fed)): Two dose-limiting toxicities; also recorded: Two DLTs (Grade 3 ALT increased and Grade 3 erythematous rash) | Number of related AEs (PTCL patients): 51 | Neutropenia: patients with event [1]: 2 (10.5%) n (%) | Pruritus: count of events [1]: 1 | Pruritus: patients with event [1]: 1 (5.3%) n (%) | Pyrexia: patients with event [1]: 0 n (%) | Vomiting: count of events [1]: 3 | Vomiting: patients with event [1]: 2 (10.5%) n (%) | Alanine aminotransferase increased: count of events [2]: 18 | Alanine aminotransferase increased: patients with event [2]: 12 (30.8%) n (%) | Anemia: count of events [2]: 2 | Anemia: patients with event [2]: 2 (5.1%) n (%) | Aspartate aminotransferase increased: count of events [2]: 20 | Aspartate aminotransferase increased: patients with event [2]: 12 (30.8%) n (%) | Blood alkaline phosphatase increased: count of events [2]: 2 | Blood alkaline phosphatase increased: patients with event [2]: 2 (5.1%) n (%) | Blood thyroid stimulating hormone increased: count of events [2]: 3 | Blood thyroid stimulating hormone increased: patients with event [2]: 2 (5.1%) n (%) | Dehydration: count of events [2]: 3 | Dehydration: patients with event [2]: 3 (7.7%) n (%) | Diarrhea: count of events [2]: 10 | Diarrhea: patients with event [2]: 9 (23.1%) n (%) | Dizziness: count of events [2]: 3 | Dizziness: patients with event [2]: 3 (7.7%) n (%) | Dyspepsia: count of events [2]: 2 | Dyspepsia: patients with event [2]: 2 (5.1%) n (%) | Erythema: count of events [2]: 2 | Erythema: patients with event [2]: 2 (5.1%) n (%) | Fatigue: count of events [2]: 7 | Fatigue: patients with event [2]: 7 (17.9%) n (%) | Gamma-glutamyltransferase increased: count of events [2]: 7 | Gamma-glutamyltransferase increased: patients with event [2]: 5 (12.8%) n (%) | Headache: count of events [2]: 2 | Headache: patients with event [2]: 2 (5.1%) n (%) | Muscle spasms: count of events [2]: 3 | Muscle spasms: patients with event [2]: 3 (7.7%) n (%) | Nausea: count of events [2]: 2 | Nausea: patients with event [2]: 2 (5.1%) n (%) | Neutropenia: count of events [2]: 1 | Neutropenia: patients with event [2]: 1 (2.6%) n (%) | Pruritus: count of events [2]: 3 | Pruritus: patients with event [2]: 3 (7.7%) n (%) | Pyrexia: count of events [2]: 5 | Pyrexia: patients with event [2]: 3 (7.7%) n (%) | Vomiting: count of events [2]: 1 | Vomiting: patients with event [2]: 1 (2.6%) n (%) | Alanine aminotransferase increased: count of events [3]: 31 | Alanine aminotransferase increased: patients with event [3]: 18 (31.0%) n (%) | Anemia: count of events [3]: 3 | Anemia: patients with event [3]: 3 (5.2%) n (%) | Aspartate aminotransferase increased: count of events [3]: 35 | Aspartate aminotransferase increased: patients with event [3]: 18 (31.0%) n (%) | Blood alkaline phosphatase increased: count of events [3]: 3 | Blood alkaline phosphatase increased: patients with event [3]: 3 (5.2%) n (%) | Blood thyroid stimulating hormone increased: count of events [3]: 5 | Blood thyroid stimulating hormone increased: patients with event [3]: 4 (6.9%) n (%) | Dehydration: count of events [3]: 4 | Dehydration: patients with event [3]: 4 (6.9%) n (%) | Diarrhea: count of events [3]: 14 | Diarrhea: patients with event [3]: 12 (20.7%) n (%) | Dizziness: count of events [3]: 5 | Dizziness: patients with event [3]: 5 (8.6%) n (%) | Dyspepsia: count of events [3]: 3 | Dyspepsia: patients with event [3]: 3 (5.2%) n (%) | Erythema: count of events [3]: 3 | Erythema: patients with event [3]: 3 (5.2%) n (%) | Fatigue: count of events [3]: 9 | Fatigue: patients with event [3]: 9 (15.5%) n (%) | Gamma-glutamyltransferase increased: count of events [3]: 9 | Gamma-glutamyltransferase increased: patients with event [3]: 7 (12.1%) n (%) | Headache: count of events [3]: 6 | Headache: patients with event [3]: 5 (8.6%) n (%) | Muscle spasms: count of events [3]: 6 | Muscle spasms: patients with event [3]: 5 (8.6%) n (%) | Nausea: count of events [3]: 4 | Nausea: patients with event [3]: 3 (5.2%) n (%) | Neutropenia: count of events [3]: 3 | Neutropenia: patients with event [3]: 3 (5.2%) n (%) | Pruritus: count of events [3]: 4 | Pruritus: patients with event [3]: 4 (6.9%) n (%) | Pyrexia: count of events [3]: 5 | Pyrexia: patients with event [3]: 3 (5.2%) n (%) | Vomiting: count of events [3]: 4 | Vomiting: patients with event [3]: 3 (5.2%) n (%) | Grade 3/4 Alanine aminotransferase increased: count of events (Relationship-all): 5 | Grade 3/4 Alanine aminotransferase increased: patients with event (Relationship-all): 5 (26.3%) n (%) | Grade 3/4 Anemia: count of events (Relationship-all): 2 | Grade 3/4 Anemia: patients with event (Relationship-all): 2 (10.5%) n (%) | Grade 3/4 Aspartate aminotransferase increased: count of events (Relationship-all): 4 | Grade 3/4 Aspartate aminotransferase increased: patients with event (Relationship-all): 4 (21.1%) n (%) | Grade 3/4 Fatigue: count of events (Relationship-all): 1 | Grade 3/4 Fatigue: patients with event (Relationship-all): 1 (5.3%) n (%) | Grade 3/4 Hyponatremia: count of events (Relationship-all): 2 | Grade 3/4 Hyponatremia: patients with event (Relationship-all): 2 (10.5%) n (%) | Grade 3/4 Neutropenia: count of events (Relationship-all): 2 | Grade 3/4 Neutropenia: patients with event (Relationship-all): 2 (10.5%) n (%) | Grade 3/4 Thrombocytopenia: count of events (Relationship-all): 1 | Grade 3/4 Thrombocytopenia: patients with event (Relationship-all): 1 (5.3%) n (%) | Abdominal pain: count of events [4]: 3 | Abdominal pain: patients with event [4]: 3 (15.8%) n (%) | Alanine aminotransferase increased: count of events [4]: 13 | Alanine aminotransferase increased: patients with event [4]: 6 (31.6%) n (%) | Anemia: count of events [4]: 6 | Anemia: patients with event [4]: 3 (15.8%) n (%) | Aspartate aminotransferase increased: count of events [4]: 16 | Aspartate aminotransferase increased: patients with event [4]: 7 (36.8%) n (%) | Blood creatinine increased: count of events [4]: 1 | Vomiting: count of events [4]: 5 | Vomiting: patients with event [4]: 4 (21.1%) n (%) | Abdominal pain: count of events [5]: 6 | Abdominal pain: patients with event [5]: 5 (12.8%) n (%) | Alanine aminotransferase increased: count of events [5]: 20 | Alanine aminotransferase increased: patients with event [5]: 14 (35.9%) n (%) | Anemia: count of events [5]: 10 | Anemia: patients with event [5]: 6 (15.4%) n (%) | Aspartate aminotransferase increased: count of events [5]: 21 | Aspartate aminotransferase increased: patients with event [5]: 14 (35.9%) n (%) | Blood creatinine increased: count of events [5]: 6 | Blood creatinine increased: patients with event [5]: 6 (15.4%) n (%) | Blood thyroid stimulating hormone increased: count of events [5]: 5 | Blood thyroid stimulating hormone increased: patients with event [5]: 4 (10.3%) n (%) | Constipation: count of events [5]: 5 | Constipation: patients with event [5]: 5 (12.8%) n (%) | Cough: count of events [5]: 9 | Cough: patients with event [5]: 7 (17.9%) n (%) | Decreased appetite: count of events [5]: 8 | Decreased appetite: patients with event [5]: 7 (17.9%) n (%) | Dehydration: count of events [5]: 13 | Dehydration: patients with event [5]: 10 (25.6%) n (%) | Diarrhea: count of events [5]: 19 | Diarrhea: patients with event [5]: 14 (35.9%) n (%) | Dizziness: count of events [5]: 9 | Dizziness: patients with event [5]: 7 (17.9%) n (%) | Dry skin: count of events [5]: 6 | Dry skin: patients with event [5]: 5 (12.8%) n (%) | Dyspnea: count of events [5]: 2 | Dyspnea: patients with event [5]: 2 (5.1%) n (%) | Fatigue: count of events [5]: 19 | Fatigue: patients with event [5]: 18 (46.2%) n (%) | Gamma-glutamyl transferase increased: count of events [5]: 9 | Gamma-glutamyl transferase increased: patients with event [5]: 6 (15.4%) n (%) | Headache: count of events [5]: 9 | Headache: patients with event [5]: 7 (17.9%) n (%) | Hypokalemia: count of events [5]: 5 | Hypokalemia: patients with event [5]: 3 (7.7%) n (%) | Hyponatremia: count of events [5]: 5 | Hyponatremia: patients with event [5]: 4 (10.3%) n (%) | Insomnia: count of events [5]: 4 | Insomnia: patients with event [5]: 3 (7.7%) n (%) | Muscle spasms: count of events [5]: 4 | Muscle spasms: patients with event [5]: 4 (10.3%) n (%) | Nausea: count of events [5]: 9 | Nausea: patients with event [5]: 9 (23.1%) n (%) | Pruritus: count of events [5]: 5 | Pruritus: patients with event [5]: 5 (12.8%) n (%) | Psychiatric disorders: count of events [5]: 12 | Psychiatric disorders: patients with event [5]: 7 (17.9%) n (%) | Pyrexia: count of events [5]: 17
